# From ChEMBL document CHEMBL1144954, “Synthesis and preliminary evaluation of (R,R)(S,S) 5-(2-(2-[4-(2-[(18)F]fluoroethoxy)phenyl]-1-methylethylamino)-1-hydroxyethyl)-benzene-1,3-diol ([(18)F]FEFE) for the in vivo visualisation and quantification of the beta2-adrenergic receptor status in lung” (Bioorg Med Chem Lett, 2003)
# Legend:
# [1] = biological target: Beta-2 adrenergic receptor (Cavia porcellus, UniProt Q8K4Z4); assay: In vitro inhibitory concentration Beta-2 adrenergic receptor in Guinea pig trachea
# [2] = Distribution in blood expressed as [18F]- organ uptake in % of injected activity/gram; assay type: ADME, tissue-based, Cavia porcellus; conditions: guinea pig
# [3] = Distribution in intestine expressed as [18F]- organ uptake in % of injected activity/gram; assay type: ADME, tissue-based, Cavia porcellus; conditions: guinea pig
# [4] = Distribution in spleen expressed as [18F]- organ uptake in % of injected activity/gram; assay type: ADME, tissue-based, Cavia porcellus; conditions: guinea pig
# [5] = Half-life was measured; assay type: ADME, Cavia porcellus; conditions: guinea pig
# [6] = Distribution in lung expressed as [18F]- organ uptake in % of injected activity/gram; assay type: ADME, tissue-based, Cavia porcellus; conditions: guinea pig
# [7] = Distribution in liver expressed as [18F]- organ uptake in % of injected activity/gram; assay type: ADME, tissue-based, Cavia porcellus; conditions: guinea pig
# [8] = Distribution in brain expressed as [18F]- organ uptake in % of injected activity/gram; assay type: ADME, tissue-based, Cavia porcellus; conditions: guinea pig
# [9] = Distribution in kidney expressed as [18F]- organ uptake in % of injected activity/gram; assay type: ADME, tissue-based, Cavia porcellus; conditions: guinea pig
# [10] = Distribution in heart expressed as [18F]- organ uptake in % of injected activity/gram; assay type: ADME, tissue-based, Cavia porcellus; conditions: guinea pig
# Chain of Beta-2 adrenergic receptor (Q8K4Z4 whole entry): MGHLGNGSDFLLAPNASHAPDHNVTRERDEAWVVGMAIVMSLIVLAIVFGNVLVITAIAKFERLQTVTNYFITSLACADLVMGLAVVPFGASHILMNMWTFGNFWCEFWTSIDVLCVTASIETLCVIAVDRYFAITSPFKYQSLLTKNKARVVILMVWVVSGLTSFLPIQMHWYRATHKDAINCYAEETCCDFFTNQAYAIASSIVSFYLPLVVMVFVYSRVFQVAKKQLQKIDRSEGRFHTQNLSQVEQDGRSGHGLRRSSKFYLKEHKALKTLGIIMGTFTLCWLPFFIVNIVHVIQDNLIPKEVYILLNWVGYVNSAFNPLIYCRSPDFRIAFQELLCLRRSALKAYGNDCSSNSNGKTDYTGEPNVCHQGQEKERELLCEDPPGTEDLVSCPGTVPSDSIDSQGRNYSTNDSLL
smiles,measurement,setting,value
CC(Cc1ccc(OCCF)cc1)NCC(O)c1cc(O)cc(O)c1 (stereo not given),IC50,[1],0.06 µM
same,ID/g,[2],0.22%
same,ID/g,[3],0.77%
same,ID/g,[4],0.84%
same,half-life,[5],1.83 h
same,ID/g,[6],1.16%
same,ID/g,[7],0.95%
same,ID/g,[8],0.02%
same,ID/g,[9],0.7%
same,ID/g,[10],0.49%
